Patent US20240166624A1, “PPARG INVERSE AGONISTS AND USES THEREOF” (Flare Therapeutics Inc., priority 2021, published 2024)

What was measured:
[1] = system: ANGPTL4, a PPARG target gene, in HT1197 (RXRA S427F mutation) cells; test: Bladder cancer pharmacodynamic assay, HT1197 cell assay (qPCR of ANGPTL4); assay type: cell-based; conditions: Homo sapiens, 24 hours, 100 nM compound, relative to DMSO control
Description: Bladder Cancer Pharmacodynamic Assay
5637 (PPARG amplified) and HT1197 (RXRA S427F mutation) cells were used for assessment of modulation of PPARG target genes using quantitative PCR. Cells were treated for 24 hours with PPARG inverse agonists prior to analysis of FABP4 (IDT, Cat: Hs.PT 58.20106818) and ANGPTL4 (IDT, Cat: Hs.PT 58.25480012) expression, with expression of the housekeeping gene TBP (IDT, Cat: Hs.PT 58v.39858774) used to normalize expression across samples. Quantitative PCR was performed using an ABI QuantStudio 7 Flex Reaction system. Data were analyzed and reported relative to DMSO control using the comparative Ct method (ΔΔCt).

[2] = biological target: T1, PPARG/RXRA LBD heterodimer (Homo sapiens, UniProt P37231); test: PPARγ-NCOR1 recruitment assay (TR-FRET, biotinylated NCOR1 ID2 peptide); assay type: biochemical; conditions: 80 nM Rosiglitazone, 3 hours, read-out: PPARG-NCOR recruitment assay EC50
T1 construct: His-TEV-Q203-Y477; Uniprot ID P37231-2; made in house; host or cells: E. coli
Description: PPARγ-NCOR1 Recruitment Assay:
Compound potency (EC50) and maximal extent of NCOR1 recruitment to PPARG were assessed a TR-FRET binding assay measuring association of a biotinylated NCOR1 ID2 peptide (Biotin-[…]-amide) to PPARG/RXRA LBD heterodimer. Specifically, a 20 microliters of TR-FRET master mix consisting of 2 nM WT PPARG LBD (E. coli expressed, His-TEV-Q203-Y477; Uniprot ID P37231-2), 2 nM WT RXRA LBD or mutant S427F RXRA LBD (E. coli expressed, Flag-TEV-E228-T462; […]. Mixtures were incubated for 3 hours and read in an EnVision plate reader (Perkin Elmer) with Ex/Em 615/665. To determine the potency (EC50) and extent of NCOR1 recruitment, TR-FRET ratios were normalized to the average ratio of DMSO control wells (0%) and to the average maximum ratio for positive control compound (T0070907 (2-chloro-5-nitro-N-4-pyridinyl-benzamide); defined as 100%) in CDD Vault and analyzed using the Levenberg-Marquardt algorithm.
T1 sequence (O75376 2251-2273 partner, one chain of several): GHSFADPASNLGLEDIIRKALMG

[3] = biological target: T2, PPARG/RXRA LBD heterodimer (Homo sapiens, UniProt P37231); test: PPARγ-MED1 blockade assay (TR-FRET, biotinylated MED1 LxxLL peptide); assay type: biochemical; conditions: WT PPARG LBD/WT RXRA LBD, 80 nM Rosiglitazone, 3 hours
T2 construct: His-TEV-Q203-Y477; Uniprot ID P37231-2; made in house; host or cells: E. coli
T2 sequence (P37231 203-477 isoform P37231-2): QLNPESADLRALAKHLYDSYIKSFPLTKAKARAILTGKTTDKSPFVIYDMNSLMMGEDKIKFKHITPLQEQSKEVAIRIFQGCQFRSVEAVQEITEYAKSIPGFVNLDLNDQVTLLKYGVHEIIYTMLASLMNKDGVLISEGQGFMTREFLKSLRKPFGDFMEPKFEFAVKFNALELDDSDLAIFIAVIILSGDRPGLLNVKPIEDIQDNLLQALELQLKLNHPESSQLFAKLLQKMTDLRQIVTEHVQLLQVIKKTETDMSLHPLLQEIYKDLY
T2 sequence (P19793 228-462 partner limits assumed): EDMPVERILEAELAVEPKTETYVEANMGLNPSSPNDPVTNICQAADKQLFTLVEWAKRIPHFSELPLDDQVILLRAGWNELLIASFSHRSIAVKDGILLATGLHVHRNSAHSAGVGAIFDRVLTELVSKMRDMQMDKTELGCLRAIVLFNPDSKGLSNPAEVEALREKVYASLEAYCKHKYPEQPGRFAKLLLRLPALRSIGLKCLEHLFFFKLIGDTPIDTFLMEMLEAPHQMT
Description: PPARγ-MED1 Blockade Assay:
Compound potency (IC50) and maximal extent of MED1 repulsion to PPARG were assessed a TR-FRET binding assay measuring association of a biotinylated MED1 LxxLL peptide (Biotin-[…]-amide) to PPARG/RXRA LBD heterodimer. Specifically, a 20 microliters of TR-FRET master mix consisting of 2 nM WT PPARG LBD (E. coli expressed, His-TEV-Q203-Y477; Uniprot ID P37231-2), 2 nM WT RXRA LBD (E. coli expressed, Flag-TEV-E228-T462; […]. Mixtures were incubated for 3 hours and read in an EnVision plate reader (Perkin Elmer) with Ex/Em 615/665. To determine the potency (IC50) and extent of MED1 repulsion, TR-FRET ratios were normalized to the average ratio of DMSO control wells (0%) and to the average minimum ratio for positive control compound (GW9662 (2-chloro-5-nitrobenzanilide); defined as 100%) in CDD Vault and analyzed using the Levenberg-Marquardt algorithm.

EC50 [2] [µM]	EC50 [3] [µM]	Compound	inhibition at 0.1 µM [1] [%]
0.1 to 1	0.1 to 1	CNC(=O)c1cccc(-c2c(F)cc3[nH]c(-c4cc(C#N)ccc4Cl)cc(=O)c3c2F)c1 [Example 78, 3-(2-(2-chloro-5-cyanophenyl)-5,7-difluoro-4-oxo-1,4-dihydroquinolin-6-yl)-N-methylbenzamide]	36
0.01 to 0.1	0.01 to 0.1	N#Cc1ccc(Cl)c(-c2cc(=O)c3c(F)c(-c4ccc(C(F)F)cc4)c(F)cc3[nH]2)c1 [Example 36, 4-chloro-3-(6-(4-(difluoromethyl)phenyl)-5,7-difluoro-4-oxo-1,4-dihydroquinolin-2-yl)benzonitrile]	65
0.1 to 1	0.1 to 1	N#Cc1ccc(Cl)c(-c2cc(=O)c3c(F)c(-c4ccc(C(F)(F)F)nc4)c(F)cc3[nH]2)c1 [Example 37, 4-chloro-3-(5,7-difluoro-4-oxo-6-(6-(trifluoromethyl)pyridin-3-yl)-1,4-dihydroquinolin-2-yl)benzonitrile]	87
0.1 to 1	0.1 to 1	N#Cc1ccc(Cl)c(-c2cc(=O)c3c(F)c(-c4cn[nH]c4)c(F)cc3[nH]2)c1 [Example 62, 4-chloro-3-(5,7-difluoro-4-oxo-6-(1H-pyrazol-4-yl)-1,4-dihdroquinolin-2-yl)benzonitrile]	40
1 to 10	1 to 10	N#Cc1ccc(Cl)c(-c2cc(=O)c3c(F)c(-c4ccc(C(=O)O)cc4)c(F)cc3[nH]2)c1 [Example 75, 4-(2-(2-chloro-5-cyanophenyl)-5,7-difluoro-4-oxo-1,4-dihydroquinolin-6-yl)benzoic acid]	20
0.1 to 1	0.1 to 1	Cc1ccc(-c2c(F)cc3[nH]c(-c4cc(C#N)ccc4Cl)cc(=O)c3c2F)cn1 [Example 46, 4-chloro-3-(5,7-difluoro-6-(6-methylpyridin-3-yl)-4-oxo-1,4-dihydroquinolin-2-yl)benzonitrile]	80
1 to 10	1 to 10	Cc1ccc(-c2c(F)cc3[nH]c(-c4cc(C#N)ccc4Cl)cc(=O)c3c2F)nn1 [Example 70, 4-chloro-3-(5,7-difluoro-6-(6-methylpyridazin-3-yl)-4-oxo-1,4-dihydroquinolin-2-yl)benzonitrile]	66

Continued, molecule first:

Compound	EC50 [2] [µM]	EC50 [3] [µM]	inhibition at 0.1 µM [1] [%]
CN(C)C(=O)[C@H]1CCCN(c2c(F)cc3[nH]c(-c4cc(C#N)ccc4Cl)cc(=O)c3c2F)C1 [Example 115, (S)-1-(2-(2-chloro-5-cyanophenyl)-5,7-difluoro-4-oxo-1,4-dihydroquinolin-6-yl)-N,N-dimethylpiperidine-3-carboxamide]	0.1 to 1	1 to 10	80
Cn1ncc(-c2c(F)cc3[nH]c(-c4cc(C#N)ccc4Cl)cc(=O)c3c2F)cc1=O [Example 63, 4-chloro-3-(5,7-difluoro-6-(1-methyl-6-oxo-1,6-dihydropyridazin-4-yl)-4-oxo-1,4-dihydroquinolin-2-yl)benzonitrile]	0.1 to 1	0.1 to 1	24
N#Cc1ccc(Cl)c(-c2cc(=O)c3c(F)cc(Cl)cc3[nH]2)c1 [Example 16, 4-chloro-3-(7-chloro-5-fluoro-4-oxo-1,4-dihydroquinolin-2-yl)benzonitrile]	0.1 to 1	0.1 to 1	88
N#Cc1ccc(Cl)c(-c2cc(=O)c3c(Cl)cc(Cl)cc3[nH]2)c1 [Example 7, 4-chloro-3-(5,7-dichloro-4-oxo-1,4-dihydroquinolin-2-yl)benzonitrile]	0.1 to 1	0.1 to 1	90
CO[C@@H]1CCN(c2c(F)cc3[nH]c(-c4cc(C#N)ccc4Cl)cc(=O)c3c2F)C1 [Example 106, (R)-4-chloro-3-(5,7-difluoro-6-(3-methoxypyrrolidin-1-yl)-4-oxo-1,4-dihydroquinolin-2-yl)benzonitrile]	0.1 to 1	0.1 to 1	75
CN1CCN(c2cc3c(=O)cc(-c4cc(C#N)ccc4Cl)[nH]c3cc2Cl)CC1 [Example 105, 4-chloro-3-(7-chloro-6-(4-methylpiperazin-1-yl)-4-oxo-1,4-dihydroquinolin-2-yl)benzonitrile]	1 to 10	1 to 10	60
Cc1cnc(-c2c(F)cc3[nH]c(-c4cc(C#N)ccc4Cl)cc(=O)c3c2F)cn1 [Example 60, 4-chloro-3-(5,7-difluoro-6-(5-methylpyrazin-2-yl)-4-oxo-1,4-dihydroquinolin-2-yl)benzonitrile]	0.1 to 1	0.1 to 1	80
CN1CC2(C1)CN(c1c(F)cc3[nH]c(-c4cc(C#N)ccc4Cl)cc(=O)c3c1F)C2 [Example 99, 4-chloro-3-(5,7-difluoro-6-(6-methyl-2,6-diazaspiro[3.3]heptan-2-yl)-4-oxo-1,4-dihydroquinolin-2-yl)benzonitrile]	> 10	> 10	59
CN(C)C(=O)[C@H]1CCN(c2c(F)cc3[nH]c(-c4cc(C#N)ccc4Cl)cc(=O)c3c2F)C1 [Example 117, (S)-1-(2-(2-chloro-5-cyanophenyl)-5,7-difluoro-4-oxo-1,4-dihydroquinolin-6-yl)-N,N-dimethylpyrrolidine-3-carboxamide]	1 to 10	1 to 10	79
O=c1cc(-c2cc([N+](=O)[O-])ccc2Cl)[nH]c2ccccc12 [Example 14, 2-(2-chloro-5-nitrophenyl)quinolin-4(1H)-one]	< 0.01	< 0.01	38
CN(C)C(=O)c1c(F)ccc(-c2c(F)cc3[nH]c(-c4cc(C#N)ccc4Cl)cc(=O)c3c2F)c1F [Example 83, 3-(2-(2-chloro-5-cyanophenyl)-5,7-difluoro-4-oxo-1,4-dihydroquinolin-6-yl)-2,6-difluoro-N,N-dimethylbenzamide]	0.1 to 1	0.1 to 1	76
Cc1c(F)c(F)cc2[nH]c(-c3cc(C#N)ccc3Cl)cc(=O)c12 [Example 24, 4-chloro-3-(6,7-difluoro-5-methyl-4-oxo-1,4-dihydroquinolin-2-yl)benzonitrile]	0.1 to 1	0.1 to 1	69
N#Cc1ccc(Cl)c(-c2cc(=O)c3c(F)c(-c4ccc5c(c4)C(=O)NC5)c(F)cc3[nH]2)c1 [Example 59, 4-chloro-3-(5,7-difluoro-4-oxo-6-(3-oxoisoindolin-5-yl)-1,4-dihydroquinolin-2-yl)benzonitrile]	0.01 to 0.1	0.01 to 0.1	42
COc1cc(F)cc2[nH]c(-c3cc(C#N)ccc3Cl)cc(=O)c12 [Example 21, 4-chloro-3-(7-fluoro-5-methoxy-4-oxo-1,4-dihydroquinolin-2-yl)benzonitrile]	1 to 10	1 to 10	87
